Data reported in PubChem BioAssay (NCI).
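Protocol summary: plate cells (96-well), add compound at 5 concentrations, incubate 48 h, interpolate endpoints linearly. TGI is the concentration that stops growth completely.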

Assays:
Experiment in all cases: inhibition of tumour cell growth, NCI panel, 48 h
T-47D breast = system: T-47D breast
K-562 leukemia = system: K-562 leukemia
UACC-62 melanoma = system: UACC-62 melanoma
HOP-62 NSCLC = system: HOP-62 NSCLC
MALME-3M melanoma = system: MALME-3M melanoma
NCI-H460 lung = system: NCI-H460 lung
SF-295 CNS = system: SF-295 CNS
COLO 205 colon = system: COLO 205 colon
MDA-MB-435 = system: MDA-MB-435
EKVX NSCLC = system: EKVX NSCLC
SW-620 colon = system: SW-620 colon
HL-60(TB) leukemia = system: HL-60(TB) leukemia
OVCAR-3 ovarian = system: OVCAR-3 ovarian
U251 CNS = system: U251 CNS
HOP-92 NSCLC = system: HOP-92 NSCLC
MDA-MB-231 breast = system: MDA-MB-231 breast
HCC-2998 colon = system: HCC-2998 colon
SN12C renal = system: SN12C renal
ACHN renal = system: ACHN renal
HCT-116 colon = system: HCT-116 colon
M14 melanoma = system: M14 melanoma
UACC-257 melanoma = system: UACC-257 melanoma
KM12 colon = system: KM12 colon
SNB-75 CNS = system: SNB-75 CNS
SF-539 CNS = system: SF-539 CNS
HCT-15 colon = system: HCT-15 colon
CCRF-CEM leukemia = system: CCRF-CEM leukemia
PC-3 prostate = system: PC-3 prostate
BT-549 breast = system: BT-549 breast
UO-31 renal = system: UO-31 renal
NCI/ADR-RES ovarian = system: NCI/ADR-RES ovarian
MDA-N = system: MDA-N
SK-MEL-2 melanoma = system: SK-MEL-2 melanoma
IGROV1 ovarian = system: IGROV1 ovarian
786-0 renal = system: 786-0 renal
CAKI-1 renal = system: CAKI-1 renal
HT29 colon = system: HT29 colon
SF-268 CNS = system: SF-268 CNS
A498 renal = system: A498 renal
TK-10 renal = system: TK-10 renal
HS 578T breast = system: HS 578T breast
MOLT-4 leukemia = system: MOLT-4 leukemia
RXF 393 renal = system: RXF 393 renal
DU-145 prostate = system: DU-145 prostate
SK-MEL-28 melanoma = system: SK-MEL-28 melanoma
OVCAR-4 ovarian = system: OVCAR-4 ovarian
LOX IMVI melanoma = system: LOX IMVI melanoma
MCF7 breast = system: MCF7 breast
NCI-H226 lung = system: NCI-H226 lung
SK-MEL-5 melanoma = system: SK-MEL-5 melanoma
A549 NSCLC = system: A549 NSCLC
OVCAR-8 ovarian = system: OVCAR-8 ovarian
SR leukemia = system: SR leukemia
OVCAR-5 ovarian = system: OVCAR-5 ovarian
RPMI-8226 leukemia = system: RPMI-8226 leukemia
SK-OV-3 ovarian = system: SK-OV-3 ovarian
NCI-H23 lung = system: NCI-H23 lung
SNB-19 CNS = system: SNB-19 CNS
NCI-H522 lung = system: NCI-H522 lung

O=C1OI(C#Cc2ccccc2)c2ccccc21
TGI (T-47D breast): 10.8 µM
TGI (K-562 leukemia): 6.7 µM
TGI (UACC-62 melanoma): 19.3 µM
TGI (HOP-62 NSCLC): 22.6 µM
TGI (MALME-3M melanoma): 5.64 µM
TGI (NCI-H460 lung): 13.4 µM
TGI (SF-295 CNS): 28.4 µM
TGI (COLO 205 colon): 9.11 µM
TGI (MDA-MB-435): 14.1 µM
TGI (EKVX NSCLC): 9.67 µM
TGI (SW-620 colon): 5.14 µM
TGI (HL-60(TB) leukemia): 7.82 µM
TGI (OVCAR-3 ovarian): 10.6 µM
TGI (U251 CNS): 6.13 µM
TGI (HOP-92 NSCLC): 5.66 µM
TGI (MDA-MB-231 breast): > 55.3 µM
TGI (HCC-2998 colon): 21.4 µM
TGI (SN12C renal): 22.6 µM
TGI (ACHN renal): 5.42 µM
TGI (HCT-116 colon): 5.8 µM
TGI (M14 melanoma): > 49.8 µM
TGI (UACC-257 melanoma): 25.2 µM
TGI (KM12 colon): 9.31 µM
TGI (SNB-75 CNS): 10.3 µM
TGI (SF-539 CNS): 5.58 µM
TGI (HCT-15 colon): 11.2 µM
TGI (CCRF-CEM leukemia): 4.01 µM
TGI (PC-3 prostate): 18.3 µM
TGI (BT-549 breast): 8.22 µM
TGI (UO-31 renal): 14.3 µM
TGI (NCI/ADR-RES ovarian): > 100 µM
TGI (MDA-N): 30.6 µM
TGI (SK-MEL-2 melanoma): 44.1 µM
TGI (IGROV1 ovarian): 6.17 µM
TGI (786-0 renal): 11.2 µM
TGI (CAKI-1 renal): 6.5 µM
TGI (HT29 colon): 20.1 µM
TGI (SF-268 CNS): 9.96 µM
TGI (A498 renal): 16.4 µM
TGI (TK-10 renal): 13.5 µM
TGI (HS 578T breast): 26.6 µM
TGI (MOLT-4 leukemia): 5.34 µM
TGI (RXF 393 renal): 97.5 µM
TGI (DU-145 prostate): 23.4 µM
TGI (SK-MEL-28 melanoma): 21.2 µM
TGI (OVCAR-4 ovarian): 12.3 µM
TGI (LOX IMVI melanoma): > 100 µM
TGI (MCF7 breast): 14.9 µM
TGI (NCI-H226 lung): 19 µM
TGI (SK-MEL-5 melanoma): 6.77 µM
TGI (A549 NSCLC): 39.7 µM
TGI (OVCAR-8 ovarian): 36.4 µM
TGI (SR leukemia): 5.53 µM
TGI (OVCAR-5 ovarian): > 40.1 µM
TGI (RPMI-8226 leukemia): 4.24 µM
TGI (SK-OV-3 ovarian): 26.1 µM
TGI (NCI-H23 lung): 10.8 µM
TGI (SNB-19 CNS): 21.8 µM

O=C1CSC2(CC(/C=C/c3ccccc3Br)=NN2c2cccc(S(=O)(=O)O)c2)N1c1nc2ccccc2s1 (stereo not drawn)
TGI (T-47D breast): > 100 µM
TGI (K-562 leukemia): > 100 µM
TGI (UACC-62 melanoma): > 100 µM
TGI (MALME-3M melanoma): > 100 µM
TGI (NCI-H460 lung): > 100 µM
TGI (COLO 205 colon): > 100 µM
TGI (MDA-MB-435): > 100 µM
TGI (EKVX NSCLC): > 100 µM
TGI (SW-620 colon): > 100 µM
TGI (HL-60(TB) leukemia): > 100 µM
TGI (U251 CNS): > 100 µM
TGI (HOP-92 NSCLC): > 100 µM
TGI (MDA-MB-231 breast): > 100 µM
TGI (HCC-2998 colon): > 100 µM
TGI (SN12C renal): > 100 µM
TGI (ACHN renal): > 100 µM
TGI (HCT-116 colon): > 100 µM
TGI (M14 melanoma): > 100 µM
TGI (UACC-257 melanoma): > 100 µM
TGI (KM12 colon): > 100 µM
TGI (SNB-75 CNS): > 100 µM
TGI (SF-539 CNS): > 100 µM
TGI (HCT-15 colon): > 100 µM
TGI (CCRF-CEM leukemia): > 100 µM
TGI (PC-3 prostate): > 100 µM
TGI (BT-549 breast): > 100 µM
TGI (UO-31 renal): > 100 µM
TGI (NCI/ADR-RES ovarian): > 100 µM
TGI (MDA-N): > 100 µM
TGI (SK-MEL-2 melanoma): > 100 µM
TGI (IGROV1 ovarian): > 100 µM
TGI (786-0 renal): > 100 µM
TGI (CAKI-1 renal): > 100 µM
TGI (HT29 colon): > 100 µM
TGI (SF-268 CNS): > 100 µM
TGI (A498 renal): > 100 µM
TGI (TK-10 renal): > 100 µM
TGI (HS 578T breast): > 100 µM
TGI (MOLT-4 leukemia): > 100 µM
TGI (RXF 393 renal): > 100 µM
TGI (NCI-H522 lung): > 100 µM
TGI (DU-145 prostate): > 100 µM
TGI (SK-MEL-28 melanoma): > 100 µM
TGI (OVCAR-4 ovarian): > 100 µM
TGI (LOX IMVI melanoma): > 100 µM
TGI (MCF7 breast): > 100 µM
TGI (NCI-H226 lung): > 100 µM
TGI (SK-MEL-5 melanoma): > 100 µM
TGI (A549 NSCLC): > 100 µM
TGI (OVCAR-8 ovarian): > 100 µM
TGI (SR leukemia): > 100 µM
TGI (OVCAR-5 ovarian): > 100 µM
TGI (RPMI-8226 leukemia): > 100 µM
TGI (NCI-H23 lung): > 100 µM
TGI (SNB-19 CNS): > 100 µM
